In this assay the test system is TUBO tumors. Description: Mono- and combination therapies in HER2+ TUBO bearing mice (FIG. 8, FIG. 9). The assay is classed as in vivo, Balb/C mice. The note with it: monotherapy. The protocol:
Balb/C mice or C57BL/6 mice received tumor cells on day 0 followed by different treatments; two doses of Taxol given intraperitoneally (i.p.) once a week; CDK inhibitor, abemaciclib was administered by oral gavage till end point; Anti-PD-L1 was given i.p. twice a week until end point; DC1 vaccine was given intratumorally.
Balb/C mice bearing TUBO tumors were treated with intratumoral HER2-DC1 vaccine alone or anti-HER2 antibody or a combination of both.
TUBO bearing mice were treated with intratumoral HER2-DC1 vaccine alone or Abemaciclib or a combination of both.
Here, we can investigate the role of gut microbiome in response to combination therapy. […] Balb/C mice bearing TUBO tumors were treated with intratumoral HER-DC1 alone or anti-HER2 antibody (7.16.4+7.9.5) alone or combination of both. While CDK inhibitor, abemaciclib was given daily by oral gavage alone or in combination with intratumoral HER2-DC1.

Consider `CC(=O)O[C@H]1C(=O)[C@@]2(C)[C@H]([C@H](OC(=O)c3ccccc3)[C@]3(O)C[C@H](OC(=O)[C@H](O)[C@@H](NC(=O)c4ccccc4)c4ccccc4)C(C)=C1C3(C)C)[C@]1(OC(C)=O)CO[C@@H]1C[C@@H]2O` [taxol, paclitaxel], for which the tumor growth result is “modestly delayed tumor growth”.

(Values after patent publication US20240009232A1, “COMBINATION THERAPY COMPRISING HER-2-DC1 VACCINE AND A PROBIOTIC” (H. LEE MOFFITT CANCER CENTER AND RESEARCH INSTITUTE, INC., priority 2021, published 2024).)
